Experimental data published in the METLIN SMRT retention time set (Domingo-Almenara et al. 2019).

Assay: gradient 5% acetonitrile 3 min, to 50% in 2 min, to 85% in 15 min, held 3 min, 100 µL/min
Details: column: Zorbax Extend-C18 2.1 x 50 mm; eluents: water / acetonitrile, 0.1% formic acid
Outline: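 Data were gathered over 3 months by HPLC coupled to a quadrupole time-of-flight mass spectrometer, operated in positive and negative ionization mode. Mixtures of ~100 pure standards ran on a Zorbax Extend-C18 column (2.1 × 50 mm, 1.8 μm) at 100 μL/min, with water and acetonitrile each containing 0.1% formic acid and dead and dwell volumes of 40 μL and 900 μL. Retention time was read from adduct peaks picked by computer and checked manually.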

Row | RP-LC retention time | Compound
1 | 578 s | Cc1cc(C(=O)NCc2ccc(N(C)C)cc2)c2c(=O)n(C)c(=O)n(C)c2n1
2 | 915 s | CCCn1c(=O)c(-c2ccc(C(=O)NC(C)C)cc2)nc2ccccc21
3 | 910 s | COc1cc(OC)cc(N2C=C(C#N)S(=O)(=O)c3ccccc32)c1
4 | 741 s | Cc1ccc(CNC(=O)C2CCCN(c3cnc4nc(C)c(C)nc4c3)C2)cc1 (stereo not given)
5 | 716 s | Cc1cccc(NS(=O)(=O)c2cc(-c3[nH]ncc3C(=O)N3CCCC3)oc2C)c1
6 | 1170 s | CCc1ccc(-c2noc(Cn3c(=O)n(Cc4cccc(OC)c4)c(=O)c4sccc43)n2)cc1
7 | 1260 s | Cc1ccc(NS(=O)(=O)c2cc(-c3nc(C(C)C)cs3)cs2)cc1C
8 | 562 s | CC(C)S(=O)(=O)c1ccc(CC(=O)N2CC(c3nc4ccccc4[nH]3)C2)cc1
9 | 578 s | Cc1cc(F)ccc1NC(=O)CCNc1cnc2cnccn12
10 | 686 s | COc1ccc(C(O)CN2CCN(c3ccccc3C)CC2)cc1 (stereo not given)
11 | 726 s | Cc1ccccc1NC(=O)C1CCCN(S(=O)(=O)c2cn(C(C)C)cn2)C1 (stereo not given)
12 | 838 s | Cc1nc(-c2ccc(F)cc2)sc1C(=O)N[C@@H](Cc1c[nH]c2ccccc12)C(=O)O
13 | 836 s | CCS(=O)(=O)Nc1ccc(-c2noc(C(C)NS(=O)(=O)c3ccc(C)cc3)n2)cc1 (stereo not given)
14 | 572 s | O=C(c1cncnc1)N1CCCn2ccnc2C1C1CCCC1 (stereo not given)
15 | 811 s | Cc1ccc(S(=O)(=O)N2CCN(c3cc(C)nc(NC4CCCCC4)n3)CC2)cc1
16 | 853 s | O=C(Cc1cccs1)NCc1cccnc1Oc1ccccc1
17 | 773 s | CCC1(O)CCC12CCN(C(=O)C1CCCC1)CC2 (stereo not given)
18 | 953 s | Cc1cc(C)cc(C(=O)N2CCC(COc3ccc(C(=O)NC(C)C)cc3)CC2)c1
19 | 836 s | Cc1cc(S(=O)(=O)N(C)CC2CCOC2)ccc1F (stereo not given)
20 | 738 s | CCNC(=O)c1nc(-c2ccc(C)cc2)n2c1CCCCC2
21 | 926 s | COc1ccc(-c2ccc3nc(N4CCC(C(=O)NC(C)C)CC4)sc3n2)cc1
22 | 935 s | Cc1cc(N2CCCCC2)nc(N2CCN(S(=O)(=O)c3ccc(-c4ccccc4)cc3)CC2)n1
23 | 755 s | O=C(NCCOc1ccccc1)Nc1cccs1

Row | RP-LC retention time | Compound
24 | 1190 s | COc1cc(NS(=O)(=O)c2ccc(Nc3nc(-c4ccc(C)c(C)c4)cs3)cc2)nc(OC)n1
25 | 602 s | CCOC(=O)CNC(=O)N1CCN(Cc2nc3cccnc3n2-c2ccc(F)cc2)CC1
26 | 627 s | COc1cc(NC(=O)N2CCCC(Cn3cnc4cccnc43)C2)cc(OC)c1OC (stereo not given)
27 | 1090 s | CCOc1ccc(N2CC(c3nc(-c4ccc(C)cc4)no3)CC2=O)cc1 (stereo not given)
28 | 806 s | Cn1ccc2cc(C(=O)NC3CCCC3)ccc21
29 | 874 s | O=C(Cn1c(=O)c2cccn2c2ccccc21)NCCCc1ccccc1
30 | 1160 s | CCOc1ccc(-c2noc(Cc3nnc(-c4cccc(Br)c4)o3)n2)cc1
31 | 619 s | COc1cc(OC)c(NC(=O)N(C)Cc2nc3cc(C(=O)N(C)C)ccc3n2C)cc1Cl
32 | 985 s | CC(C)c1nc(-n2cccc2)sc1C(=O)NC1CC1
33 | 589 s | Cc1ccc2cc(CCC(=O)NCCc3ccncc3)c(=O)[nH]c2c1
34 | 671 s | Cc1nc(C)c(C(=O)NCC2Cn3cccc3C(=O)N2CC(C)C)s1 (stereo not given)
35 | 641 s | O=C(O)[C@@H]1CN(Cc2ccccc2)C[C@@H]1C(=O)N1CCc2ccccc21
36 | 620 s | CC1CC(C)CN(CCCNC(=O)Cn2c(=O)c3cccn3c3ccccc32)C1 (stereo not given)
37 | 869 s | CCOc1ccc(CNC(=O)C2CCCN(c3ccc(=O)n(-c4ccc(F)cc4)n3)C2)cc1 (stereo not given)
38 | 1150 s | Fc1ccc(C2Cn3nnc(-c4nc(-c5cccc(F)c5)no4)c3CO2)cc1 (stereo not given)
39 | 877 s | Cc1ccc(N2CC(c3noc(-c4ccco4)n3)CC2=O)cc1 (stereo not given)
40 | 921 s | COc1cccc(-c2ccc(=O)n(CCc3nc(-c4cccc(OC)c4OC)no3)n2)c1
41 | 656 s | Cc1nnc2c(=O)n(CC(=O)NCc3ccc(F)cc3)c3cccnc3n12
42 | 570 s | Cc1ccc(NC(=O)C2CCc3sc(C(=O)N4CCOCC4)cc3C2)cc1C (stereo not given)
43 | 691 s | COCCOC1CCOC2(CCN(C(=O)c3cccs3)CC2)C1 (stereo not given)
44 | 854 s | CCc1noc(NC(C)=O)c1-c1ccc(C)c(S(=O)(=O)Nc2cc(OC)cc(OC)c2)c1
45 | 792 s | Cc1ccc(C(=O)N2CCC3(C2)C(=O)N(C)c2ccccc23)cc1 (stereo not given)
46 | 905 s | COCCN1C(=O)c2ccccc2C(C(=O)NCc2ccccc2Cl)C12CCCC2 (stereo not given)

Row | RP-LC retention time | Compound
47 | 604 s | O=C(CC1CCCC1)N1CCC(N(Cc2cccnc2)C2CCOCC2)CC1
48 | 793 s | COc1ccc2c(c1)[C@H]1OCCC[C@H]1C(c1cccc(O)c1)N2 (stereo not given in full)
49 | 850 s | CCn1cc(C2=CCN(C(=O)NCc3cccc(F)c3)CC2)c2cccnc21
50 | 977 s | CCSc1nc2ccc(NS(=O)(=O)c3cccc4nsnc34)cc2s1
51 | 757 s | CCc1ccc(-c2cc(C)no2)cc1S(=O)(=O)N1CCN(c2ccccn2)CC1
52 | 738 s | Cc1ccc(-c2ccc(N3CCCC(C(=O)NC4CCCC4)C3)nn2)cc1C (stereo not given)
53 | 876 s | CCOC(=O)c1cnc(Nc2nc(-c3ccccc3)c3ccccc3n2)nc1C
54 | 599 s | Cc1cc(=O)n(CC(=O)NC2CCCC2)c(N2CCOCC2)n1
55 | 873 s | COc1ccc(-n2ccn3cc(-c4ccccc4)nc3c2=O)cc1Cl
56 | 801 s | COc1ccc(Nc2ncccc2S(N)(=O)=O)cc1Cl
57 | 839 s | O=C(NCc1ccco1)c1ccc(-c2noc(C3CC3)n2)cc1
58 | 1030 s | COc1ccccc1CNC(=O)c1sc(-c2cn(C(C)C)c3ncccc23)nc1C
59 | 863 s | Cc1ccc(Nc2nc(-c3ccc4c(c3)OCO4)cs2)nc1
60 | 1210 s | Cc1cc(C)nc(N2CCN(c3c4c(nc5c(-c6ccccc6)c(C)nn35)CCC4)CC2)n1
61 | 866 s | Cc1cc(COC(=O)c2cc3ccccc3o2)no1
62 | 730 s | CCOc1cc(-c2ccccc2)nc2ccc(NS(=O)(=O)c3ccc(OC)c(OC)c3)cc12
63 | 752 s | COc1ccc(S(=O)(=O)N2CCC3(CC2)CC(C)(O)CCO3)cc1 (stereo not given)
64 | 663 s | CCOc1ccc2ncc(C#N)c(NCc3ccc(OC)c(OC)c3)c2c1
65 | 823 s | Cc1nn(C(C)C(=O)NCCCOC(C)C)c(=O)c2c(C)n(-c3ccccc3)nc12 (stereo not given)
66 | 1300 s | CCc1noc(NC(C)=O)c1-c1ccc(OC)c(S(=O)(=O)Nc2ccc(C)c(Cl)c2)c1
67 | 650 s | CC(Oc1ccccc1)C(=O)N1CCN(c2nc(CN3CCCCC3)cs2)CC1 (stereo not given)
68 | 653 s | CN(CC1CCOC1)C(=O)Nc1ccccc1 (stereo not given)
69 | 1020 s | CC(=O)Oc1ccccc1C1=NN(C(C)=O)C(c2ccc(Cl)cc2)O1 (stereo not given)

Row | RP-LC retention time | Compound
70 | 1020 s | COc1ccc(-c2nnc(-c3cccc(S(=O)(=O)N4CCCCCC4)c3)o2)cc1OC
71 | 1310 s | CCOc1ccc(C2Cn3nnc(-c4nc(-c5cccc(Br)c5)no4)c3CO2)cc1 (stereo not given)
72 | 720 s | Cc1nnc(N2CCCC(C(=O)NCc3ccc(F)cc3)C2)c2nn(-c3ccccc3)c(C)c12 (stereo not given)
73 | 734 s | O=C(NCC(c1cccnc1)N1CCc2ccccc21)C(=O)Nc1ccc2c(c1)OCO2 (stereo not given)
74 | 1210 s | Cc1ccc(-c2ccc(-n3nc(C)c(S(=O)(=O)NCCC(C)C)c3C)nn2)cc1
75 | 1290 s | Fc1ccc(Cl)cc1-c1nc(-c2ccc(-n3cccn3)nc2)no1
76 | 917 s | CCN1C(=O)c2ccccc2Oc2ccc(C(=O)NCc3ccccc3OC)cc21
77 | 605 s | O=C(CC1CCN(C(=O)c2ccc3oc(C4CC4)nc3c2)CC1)NCc1ccccn1
78 | 588 s | COc1ccc(-c2[nH]ncc2CN2CCC3(CC2)CC(C)(O)CCO3)cc1 (stereo not given)
79 | 1090 s | COc1ccc(Cc2nc3nccc(-c4cc5ccccc5o4)n3n2)cc1
80 | 794 s | CCOC(=O)c1ccc(NC(=O)CSc2nnc(-c3cccn(CC)c3=O)n2C)cc1
81 | 890 s | Cc1ccn2c(Nc3ccccc3C)c(-c3cccc(Cl)c3)nc2c1
82 | 1100 s | CCOc1ccc(-c2cc3c(=O)n(Cc4nc(-c5ccc6c(c5)OCO6)no4)ncn3n2)cc1
83 | 544 s | CC(=O)Nc1ccc(OCC(=O)N(C)Cc2ccccc2)nc1
84 | 1190 s | CSc1cccc(NC(=O)Cn2ncc3c(c2=O)N(CC2CC2)C(=O)CS3)c1
85 | 964 s | CCCn1nnc2cc(-c3noc(C4CC(=O)N(c5ccc(C)cc5)C4)n3)ccc21 (stereo not given)
86 | 889 s | O=C(CN1C(=O)CCc2cc(Br)ccc21)Nc1ccccc1
87 | 1020 s | O=C(Nc1cnc(N2CCCCCC2)nc1)c1cc(F)cc(F)c1
88 | 760 s | O=C(NC1CCCC1)C1CC(=O)N(c2ccc3c(c2)CCN3C(=O)C2CCC2)C1 (stereo not given)
89 | 690 s | COc1ccc(Cn2c(C)c(CNCc3ccccn3)c(C(=O)O)c2C)cc1
90 | 1240 s | Cc1cccc(NC(=O)c2cc(C(C)(C)C)n3nccc3n2)c1
